PubChem BioAssay AID1963442 (Molecular Pharmacology Branch, DTP, NCI, 2024)

Tested on: MPNST complex spheroid with HUVEC/MSC, growth, % test/control
Experiment: Anticancer human tumor MPNST cell line growth inhibition [Asc];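 also: compounds left on spheroids for seven days before reading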
Conditions: for IC50: curve of first compound; for viability, T/C: stronger effect = lower value
Method in brief: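 Tumor cells were grown as multicellular spheroids with stromal HUVEC and mesenchymal stem cells and treated singly or in combination. Concentrations fell in half-log steps from the clinical Cmax, or from 10 microM where none was known.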

SMILES: C#Cc1c(F)ccc2cc(O)cc(-c3ncc4c(N5CC6CCC(C5)N6)nc(OCC56CCCN5CC(F)C6)nc4c3F)c12 (stereo not given) + Cc1c(S(C)(=O)=O)c(-c2cc(F)cc(N3CCN(c4ccc(NS(=O)(=O)c5ccc(NC(CCN6CCC(C(=O)OCCCP(=O)(O)O)CC6)CSc6ccccc6)c(S(=O)(=O)C(F)(F)F)c5)cc4)CC3)c2)c(-c2ccc(Cl)cc2)n1C(C)C
- IC50 (second compound 0.1 µM): > 10 µM
- IC50 (second compound 0.316 µM): > 10 µM
- IC50 (second compound 1 µM): > 10 µM
- IC50 (second compound 3.16 µM): > 10 µM
- IC50 (second compound 10 µM): > 10 µM
- viability, T/C (second compound 0.1 µM, first compound 0.0316 µM): 99.2%
- viability, T/C (second compound 0.1 µM, first compound 0.1 µM): 104%
- viability, T/C (second compound 0.1 µM, first compound 0.316 µM): 92.9%
- viability, T/C (second compound 0.1 µM, first compound 1 µM): 103%
- viability, T/C (second compound 0.1 µM, first compound 3.16 µM): 99.9%
- viability, T/C (second compound 0.1 µM, first compound 10 µM): 101%
- viability, T/C (second compound 0.316 µM, first compound 0.0316 µM): 93.4%
- viability, T/C (second compound 0.316 µM, first compound 0.1 µM): 105%
- viability, T/C (second compound 0.316 µM, first compound 0.316 µM): 110%
- viability, T/C (second compound 0.316 µM, first compound 1 µM): 94.7%
- viability, T/C (second compound 0.316 µM, first compound 3.16 µM): 91%
- viability, T/C (second compound 0.316 µM, first compound 10 µM): 96.5%
- viability, T/C (second compound 1 µM, first compound 0.0316 µM): 97%
- viability, T/C (second compound 1 µM, first compound 0.1 µM): 99.2%
- viability, T/C (second compound 1 µM, first compound 0.316 µM): 101%
- viability, T/C (second compound 1 µM, first compound 1 µM): 95.4%
- viability, T/C (second compound 1 µM, first compound 3.16 µM): 93.4%
- viability, T/C (second compound 1 µM, first compound 10 µM): 77%
- viability, T/C (second compound 3.16 µM, first compound 0.0316 µM): 80.5%
- viability, T/C (second compound 3.16 µM, first compound 0.1 µM): 91.2%
- viability, T/C (second compound 3.16 µM, first compound 0.316 µM): 117%
- viability, T/C (second compound 3.16 µM, first compound 1 µM): 101%
- viability, T/C (second compound 3.16 µM, first compound 3.16 µM): 78.2%
- viability, T/C (second compound 3.16 µM, first compound 10 µM): 71.8%
- viability, T/C (second compound 10 µM, first compound 0.0316 µM): 121%
- viability, T/C (second compound 10 µM, first compound 0.1 µM): 135%
- viability, T/C (second compound 10 µM, first compound 0.316 µM): 118%
- viability, T/C (second compound 10 µM, first compound 1 µM): 158%
- viability, T/C (second compound 10 µM, first compound 3.16 µM): 108%
- viability, T/C (second compound 10 µM, first compound 10 µM): 124%

SMILES: Cc1nc(N2CCC3(CC2)COC(C)C3N)c(CO)nc1Sc1ccnc(N)c1Cl (stereo not given) + Cc1c(S(C)(=O)=O)c(-c2cc(F)cc(N3CCN(c4ccc(NS(=O)(=O)c5ccc(NC(CCN6CCC(C(=O)OCCCP(=O)(O)O)CC6)CSc6ccccc6)c(S(=O)(=O)C(F)(F)F)c5)cc4)CC3)c2)c(-c2ccc(Cl)cc2)n1C(C)C
- IC50 (second compound 0.1 µM): > 3 µM
- IC50 (second compound 0.316 µM): > 3 µM
- IC50 (second compound 1 µM): > 3 µM
- IC50 (second compound 3.16 µM): > 3 µM
- IC50 (second compound 10 µM): > 3 µM
- viability, T/C (second compound 0.1 µM, first compound 0.00949 µM): 117%
- viability, T/C (second compound 0.1 µM, first compound 0.03 µM): 152%
- viability, T/C (second compound 0.1 µM, first compound 0.0949 µM): 143%
- viability, T/C (second compound 0.1 µM, first compound 0.3 µM): 121%
- viability, T/C (second compound 0.1 µM, first compound 0.949 µM): 104%
- viability, T/C (second compound 0.1 µM, first compound 3 µM): 112%
- viability, T/C (second compound 0.316 µM, first compound 0.00949 µM): 130%
- viability, T/C (second compound 0.316 µM, first compound 0.03 µM): 136%
- viability, T/C (second compound 0.316 µM, first compound 0.0949 µM): 157%
- viability, T/C (second compound 0.316 µM, first compound 0.3 µM): 125%
- viability, T/C (second compound 0.316 µM, first compound 0.949 µM): 117%
- viability, T/C (second compound 0.316 µM, first compound 3 µM): 79.5%
- viability, T/C (second compound 1 µM, first compound 0.00949 µM): 121%
- viability, T/C (second compound 1 µM, first compound 0.03 µM): 148%
- viability, T/C (second compound 1 µM, first compound 0.0949 µM): 126%
- viability, T/C (second compound 1 µM, first compound 0.3 µM): 135%
- viability, T/C (second compound 1 µM, first compound 0.949 µM): 96.2%
- viability, T/C (second compound 1 µM, first compound 3 µM): 93.6%
- viability, T/C (second compound 3.16 µM, first compound 0.00949 µM): 136%
- viability, T/C (second compound 3.16 µM, first compound 0.03 µM): 141%
- viability, T/C (second compound 3.16 µM, first compound 0.0949 µM): 164%
- viability, T/C (second compound 3.16 µM, first compound 0.3 µM): 108%
- viability, T/C (second compound 3.16 µM, first compound 0.949 µM): 117%
- viability, T/C (second compound 3.16 µM, first compound 3 µM): 88.3%
- viability, T/C (second compound 10 µM, first compound 0.00949 µM): 175%
- viability, T/C (second compound 10 µM, first compound 0.03 µM): 159%
- viability, T/C (second compound 10 µM, first compound 0.0949 µM): 153%
- viability, T/C (second compound 10 µM, first compound 0.3 µM): 108%
- viability, T/C (second compound 10 µM, first compound 0.949 µM): 125%
- viability, T/C (second compound 10 µM, first compound 3 µM): 94.4%
